Assay results published in ChEMBL document CHEMBL2046407, “Synthesis and in vitro antitubercular activity of 4-aryl/alkylsulfonylmethylcoumarins as inhibitors of Mycobacterium tuberculosis” (2012).
Values after ≈ are worked out from the molar mass of the structure shown.

System: Mycobacterium tuberculosis
Test: Antimycobacterial activity against Mycobacterium tuberculosis H37Rv by agar diffusion method
Assay type: functional

SMILES	MIC
O=c1cc(CS(=O)(=O)c2ccccc2)c2ccccc2o1	6.25 µg/mL (≈ 20.8 µM)
Cc1ccc(S(=O)(=O)Cc2cc(=O)oc3ccccc23)cc1	12.5 µg/mL (≈ 39.8 µM)
O=c1cc(CS(=O)(=O)c2ccc(Cl)cc2)c2ccccc2o1	12.5 µg/mL (≈ 37.3 µM)
O=c1cc(CS(=O)(=O)c2nc3ccccc3o2)c2ccccc2o1	7.5 µg/mL (≈ 22 µM)
O=c1cc(CS(=O)(=O)c2nc3ccccc3[nH]2)c2ccccc2o1	1.61 µg/mL (≈ 4.73 µM)
O=c1cc(CS(=O)(=O)C2CCCCC2)c2ccccc2o1	6.25 µg/mL (≈ 20.4 µM)
COc1ccc2c(CS(=O)(=O)c3ccccc3)cc(=O)oc2c1OC	6.25 µg/mL (≈ 17.3 µM)
COc1ccc2c(CS(=O)(=O)c3ccc(C)cc3)cc(=O)oc2c1OC	3.13 µg/mL (≈ 8.36 µM)
COc1ccc2c(CS(=O)(=O)c3ccc(Cl)cc3)cc(=O)oc2c1OC	1.56 µg/mL (≈ 3.95 µM)
COc1ccc2c(CS(=O)(=O)c3nc4ccccc4o3)cc(=O)oc2c1OC	0.78 µg/mL (≈ 1.94 µM)
COc1ccc2c(CS(=O)(=O)c3nc4ccccc4[nH]3)cc(=O)oc2c1OC	6.25 µg/mL (≈ 15.6 µM)
COc1ccc2c(CS(=O)(=O)C3CCCCC3)cc(=O)oc2c1OC	12.5 µg/mL (≈ 34.1 µM)
COc1ccc2c(CS(=O)(=O)c3ccccc3)cc(=O)oc2c1	12.5 µg/mL (≈ 37.8 µM)
COc1ccc2c(CS(=O)(=O)c3ccc(C)cc3)cc(=O)oc2c1	12.5 µg/mL (≈ 36.3 µM)
COc1ccc2c(CS(=O)(=O)c3ccc(Cl)cc3)cc(=O)oc2c1	6.25 µg/mL (≈ 17.1 µM)
COc1ccc2c(CS(=O)(=O)c3nc4ccccc4o3)cc(=O)oc2c1	6.25 µg/mL (≈ 16.8 µM)
COc1ccc2c(CS(=O)(=O)c3nc4ccccc4[nH]3)cc(=O)oc2c1	6.25 µg/mL (≈ 16.9 µM)
COc1ccc2c(CS(=O)(=O)C3CCCCC3)cc(=O)oc2c1	12.5 µg/mL (≈ 37.2 µM)
CC[C@@H](CO)NCCN[C@@H](CC)CO [ETHAMBUTOL]	1.56 µg/mL (≈ 7.64 µM)
NC(=O)c1cnccn1 [PYRAZINAMIDE]	6.25 µg/mL (≈ 50.8 µM)
